Measurements as given in patent US6921770B2 (priority 2000, dated 2005).
Like-named read-outs stand apart in the source and are kept apart here.

Experiments:
rice blast fungi [1] = format: in vivo, Pyricularia grisea
Pyricularia grisea = format: in vivo
rice blast fungi [2] = format: cell-based, Magnaporthe grisea
rice blast fungi [3] = format: cell-based, Magnaporthe grisea; remark: listed apart in the source
Sprague-Dawley rats = conditions: rat, in vivo
Oryzias latipes = conditions: in vivo
[4] = test system: Salmonella typhimurium TA100 and TA98

| Compound | Inhibiting Ratio (%) (at 250 ppm) (rice blast fungi [1]) | controlling effect on rice blast (Pyricularia grisea; 2 ppm) [%] | controlling effect on rice blast (Pyricularia grisea; 10 ppm) [%] | controlling effect on rice blast (Pyricularia grisea; 100 ppm) [%] | further results |
| --- | --- | --- | --- | --- | --- |
| 2-(3-trifluoromethoxyphenylimino)-3-methyl-4-[N-methoxyphenyl)carbamoylmethyl]-1,3-thiazol-4-ine [Compound 339] | 98 | 80 | 95 | 96 | – |
| Br.Cn1c(CC(=O)Nc2ccccc2)csc1=Nc1cc(Cl)cc(Cl)c1 [Compound 5, 2-(3,5-dichlorophenylimino)-3-methyl-4-(N-phenylcarbamoylmethyl)-1,3-thiazol-4-ine hydrobromide] | 100 | – | – | – | color of the medium (rice blast fungi [2]; 5 μg/ml): white; concentration at which the accumulation of melanin in the appressorium is inhibited (rice blast fungi [3]): above 10 μg/ml |
| Br.Cn1c(CC(=O)Nc2ccccc2)csc1=Nc1ccc(F)cc1F [Compound 27, 2-(2,4-difluorophenylimino)-3-methyl-4-(N-phenylcarbamoylmethyl)-1,3-thiazol-4-ine hydrobromide] | 98 | 80 | 91 | 98 | – |
| Br.Cc1ccc(NC(=O)Cc2csc(=Nc3ccc(F)cc3F)n2C)cc1 [Compound 31, 2-(2,4-difluorophenylimino)-3-methyl-4-[N-(4-methylphenyl)carbamoylmethyl]-1,3-thiazol-4-ine hydrobromide] | 100 | 80 | 91 | 100 | – |
| Cl.Cn1c(CC(=O)Nc2ccc(Cl)cc2)csc1=Nc1ccc(C#N)cc1 [Compound 128, 2-(4-cyanophenylimino)-3-methyl-4-[N-(4-chlorophenyl)carbamoylmethyl]-1,3-thiazol-4-ine hydrochloride] | 98 | 85 | 100 | 100 | – |
| Cl.Cn1c(CC(=O)Nc2ccccc2F)csc1=Nc1ccc(Br)cc1 [Compound 152, 2-(4-bromophenylimino)-3-methyl-4-[N-(2-fluorophenyl)carbamoylmethyl]-1,3-thiazol-4-ine hydrochloride] | 100 | 70 | 85 | 99 | – |
| CCCCc1ccc(N=c2scc(CC(=O)Nc3ccc(OC)cc3)n2C)cc1.Cl [Compound 197, 2-[4-(n-butyl)phenylimino]-3-methyl-4-[N-(4-methoxyphenyl)carbamoylmethyl]-1,3-thiazol-4-ine hydrochloride] | 95 | 83 | 98 | 95 | – |
| COc1ccc(NC(=O)Cc2csc(=Nc3cccc(Br)c3)n2C)cc1.Cl [Compound 201, 2-(3-bromophenylimino)-3-methyl-4-[N-(4-methoxyphenyl)carbamoylmethyl]-1,3-thiazol-4-ine hydrochloride] | 97 | 87 | 99 | 97 | – |
| COc1ccc(NC(=O)Cc2csc(=Nc3ccc(F)c(Cl)c3)n2C)cc1.Cl [Compound 202, 2-(3-chloro-4-fluorophenylimino)-3-methyl-4-[N-(4-methoxyphenyl)carbamoylmethyl]-1,3-thiazol-4-ine hydrochloride] | 95 | 93 | 98 | 95 | – |
| COc1ccc(NC(=O)Cc2csc(=Nc3cccc(F)c3)n2C)cc1.Cl [Compound 203, 2-(3-fluorophenylimino)-3-methyl-4-[N-(4-methoxyphenyl)carbamoylmethyl]-1,3-thiazol-4-ine hydrochloride] | 93 | 93 | 99 | 93 | – |
| COc1ccc(NC(=O)Cc2csc(=Nc3ccccc3F)n2C)cc1.Cl [Compound 204, 2-(2-fluorophenylimino)-3-methyl-4-[N-(4-methoxyphenyl)carbamoylmethyl]-1,3-thiazol-4-ine hydrochloride] | 97 | 83 | 95 | 97 | body weight (Sprague-Dawley rats): Normal weight gain; dead animals (Sprague-Dawley rats): not observed; general symptoms (Sprague-Dawley rats): Any abnormal observations were made; postmortem examination (Sprague-Dawley rats): does not show any abnormal conservation; minimal lethal dose (Sprague-Dawley rats; po): higher than 2500 mg/kg; Accumulated number of dead animals (Oryzias latipes): 0; acute toxicity value (Oryzias latipes): > 100 mg/L; bacterial reverse mutation [4]: does not cause bacterial reverse mutation; colony number in the group treated with the test material [4]: less than twice of that in the negative control group |
| COc1ccc(NC(=O)Cc2csc(=Nc3ccc(C(F)(F)F)cc3)n2C)cc1.Cl [Compound 205, 2-(4-trifluoromethylphenylimino)-3-methyl-4-[N-(4-methoxyphenyl)carbamoylmethyl]-1,3-thiazol-4-ine hydrochloride] | 97 | 93 | 98 | 97 | – |
| COc1ccc(NC(=O)Cc2csc(=Nc3ccc(F)cc3F)n2C)cc1.Cl [Compound 206, 2-(2,4-difluorophenylimino)-3-methyl-4-[N-(4-methoxyphenyl)carbamoylmethyl]-1,3-thiazol-4-ine hydrochloride] | 93 | 93 | 97 | 93 | – |
| CCCCc1ccc(N=c2scc(CC(=O)Nc3ccc(C)c(Cl)c3)n2C)cc1.Cl [Compound 234, 2-[4-(n-butyl)phenylimino]-3-methyl-4-(N-[3-chloro-4-methylphenyl)carbamoylmethyl]-4-thiazoline hydrochloride] | 97 | 75 | 92 | 97 | – |
| Br.COc1ccc(NC(=O)Cc2csc(=Nc3ccc(C#N)cc3)n2C)cc1 [Compound 323, 2-(4-cyanophenylimino)-3-methyl-4-[N-(4-methoxyphenyl)carbamoylmethyl]-1,3-thiazol-4-ine hydrobromide] | 97 | 75 | 100 | 100 | – |
| COc1ccc(NC(=O)Cc2csc(=Nc3cccc(Br)c3)n2C)cc1 [Compound 335, 2-(3-bromophenylimino)-3-methyl-4-[N-(methoxyphenyl)carbamoylmethyl]-1,3-thiazol-4-ine] | 99 | 72 | 95 | 94 | – |
| COc1ccc(NC(=O)Cc2csc(=Nc3ccc(C(F)(F)F)cc3)n2C)cc1F.Cl [Compound 343, 2-(4-trifluoromethylphenylimino)-3-methyl-4-[N-(3-fluoro-4-methoxyphenyl)carbamoylmethyl]-1,3-thiazol-4-ine hydrochloride] | – | 90 | 94 | 98 | – |
| COc1ccc(NC(=O)Cc2csc(=Nc3ccc(C#N)cc3)n2C)cc1F.Cl [Compound 344, 2-(4-cyanophenylimino)-3-methyl-4-[N-(3-fluoro-4-methoxyphenyl)carbamoylmethyl]-1,3-thiazol-4-ine hydrochloride] | – | 83 | 97 | 98 | – |
| CCc1ccc(NC(=O)Cc2csc(=Nc3ccc(C#N)cc3)n2C)cc1.Cl [Compound 345, 2-(4-cyanophenylimino)-3-methyl-4-[N-(4-ethylphenyl)carbamoylmethyl]-1,3-thiazol-4-ine hydrochloride] | – | – | – | – | controlling effect on rice blast (Pyricularia grisea; 2 ppm, hydrochloride): 70%; controlling effect on rice blast (Pyricularia grisea; 10 ppm, hydrochloride): 94%; controlling effect on rice blast (Pyricularia grisea; 100 ppm, hydrochloride): 97% |
| CCc1ccc(NC(=O)Cc2csc(=Nc3ccc(C(F)(F)F)cc3)n2C)cc1.Cl [Compound 346, 2-(4-trifluoromethylphenylimino)-3-methyl-4-[N-(4-ethylphenyl)carbamoylmethyl]-1,3-thiazol-4-ine hydrochloride] | – | 79 | 96 | 99 | – |
| Cc1cccc2sc3nncn3c12 [tricyclazole, reference compound] | – | – | – | – | color of the medium (rice blast fungi [2]): red |
